Earlier results on one compound are cited in patent publication US12496330B2, “Methods of improving spinal fusion with abaloparatide” (Radius Health, Inc., priority 2019, dated 2025).

This data set deals with bone resorption and bone formation markers. The settings on record: male mice; at 4-fold the current dose.

With `CC[C@H](C)[C@H](NC(=O)[C@H](CCC(=O)O)NC(=O)[C@H](CO)NC(=O)[C@@H](NC(=O)[C@@H](N)CO)C(C)C)C(=O)N[C@@H](CCC(N)=O)C(=O)N[C@@H](CC(C)C)C(=O)N[C@@H](CCSC)C(=O)N[C@@H](Cc1cnc[nH]1)C(=O)N[C@@H](CC(N)=O)C(=O)N[C@@H](CC(C)C)C(=O)NCC(=O)N[C@@H](CCCCN)C(=O)N[C@@H](Cc1cnc[nH]1)C(=O)N[C@@H](CC(C)C)C(=O)N[C@@H](CC(N)=O)C(=O)N[C@@H](CO)C(=O)N[C@@H](CCSC)C(=O)N[C@@H](CCC(=O)O)C(=O)N[C@@H](CCCN=C(N)N)C(=O)N[C@H](C(=O)N[C@@H](CCC(=O)O)C(=O)N[C@@H](Cc1c[nH]c2ccccc12)C(=O)N[C@@H](CC(C)C)C(=O)N[C@@H](CCCN=C(N)N)C(=O)N[C@@H](CCCCN)C(=O)N[C@@H](CCCCN)C(=O)N[C@@H](CC(C)C)C(=O)N[C@@H](CCC(N)=O)C(=O)N[C@@H](CC(=O)O)C(=O)N[C@H](C(=O)N[C@@H](Cc1cnc[nH]1)C(=O)N[C@@H](CC(N)=O)C(=O)N[C@@H](Cc1ccccc1)C(=O)O)C(C)C)C(C)C` [teriparatide], the Bone resorption markers result is reported as “increased”.
